In general, melting point refers to the temperature of the solid-liquid transition. Consider `O=C(Nc1cccc(C(F)(F)F)c1)Nc1ccc2[nH]c(C(F)(F)F)nc2c1`, for which the melting point was in the range of 213 to 215 °C.

As to `Cc1ccc2c(c1C#N)c(Sc1ccc(Cl)cc1)c(C)n2CC(=O)O`, the melting point fell in the range of 237 to 238 °C.

With `CCCNC(=O)C(C)(C)Cc1ccc2c(c1)c(Cc1ccc(C(=O)O)cc1OC)cn2CCC`, the melting point fell in the range of 78 to 90 °C.

With `COC1CCC(C2=C(O)C(=O)c3ccccc3C2=O)CC1` (stereo not given), the melting point is 152 to 155 °C.

As for `CCOC(=O)c1cn(NCC=O)c2c(F)c(F)c(F)cc2c1=O`, the melting point was 185 °C.

`CS(=O)(=O)OCc1cc(-c2ccc(OCc3ccccc3)cc2)no1` yielded a melting point of 110 to 112 °C.

Regarding `Cc1noc(NC(=O)N2CCN(c3nc(-c4ccc(F)cc4F)cs3)CC2)c1C`, the melting point is 166 to 167 °C.

Consider `O=C(O)CCSC1c2ccc(SCC(=O)O)cc2COc2ccc(OCc3ccc4ccc(Cl)cc4n3)cc21` (stereo not given), for which the melting point is 165 to 167 °C.

With `O=C(O)/C=C/c1ccc(OCc2ccccc2)cc1OCc1ccccc1`, the melting point lay in the range of 153 to 155 °C.

`CC(c1cc(Cl)cc([N+](=O)[O-])c1O)c1cc(Br)cc([N+](=O)[O-])c1O` (stereo not given) returned a melting point of 161 °C.

For the compound `C[Si](C)(C)N1CCN(N=Cc2ccccc2)C(=O)C1=O`, the melting point lay in the range of 190 to 191 °C.

In the case of `O=C(NC1N=C(c2ccccc2F)c2ccccc2NC1=O)c1cc2ccccc2[nH]1` (racemic), the melting point was 290 to 291 °C.

As to `N#Cc1c(N2CCN(C(=O)c3ccco3)CC2)c2cc(Cl)cnc2n(Cc2ccccc2)c1=O`, the melting point stood at 196 °C.

Regarding `Cc1ccc(S(=O)(=O)OCC2Cc3c(C(F)(F)F)ccc(Cl)c3O2)cc1` (stereo not given), the melting point fell in the range of 89 to 92 °C.

`CCN1c2ncc(Br)cc2C(=O)N(C)c2ccc(F)nc21` returned a melting point of 154 to 156 °C.

`O=C1CCSc2ncccc21`: the melting point was 66 to 68 °C.

In the case of `Oc1ccc(Sc2ccc(-c3ccc(Sc4ccc(O)cc4)cc3)cc2)cc1`, the melting point lay within 214 to 217 °C.

Consider `COc1cc(CC(C)(C)NC(=O)c2ccc(Cl)nc2)cc2c1OC(C)(C)C2`, for which the melting point fell in the range of 118 to 119 °C.

`O=S1(=O)NCN(C2CC2)c2c1ccc(Cl)c2Cl` had a melting point of 132 to 133 °C.

As to `CC(C)(C)CC(C)(C)c1cc(-n2nc3ccc(Cl)cc3n2)c(O)c(C(C)(C)c2ccccc2)c1`, the melting point fell in the range of 104 to 105 °C.

In turn, `O=C(CNCc1ccc(OCc2ccccc2)cc1)NCCCOc1ccccc1` yielded a melting point of 55 to 56 °C.

Regarding `CC(C)CC(=O)Nc1c(C(=O)c2cccc(C(F)(F)F)c2)[nH]c2cc(Cl)ccc12`, the melting point was in the range of 179 to 180 °C.

On to `CCC(C)C(NC(=O)OCc1ccccc1)C(=O)NC(Cc1c[nH]c2ccccc12)C(=O)OC` (stereo not given), for which the melting point was in the range of 152 to 155 °C.

With `O=c1cc(OCc2ccccc2Cl)ccn1Cc1ccccc1`, the melting point is 125 °C.

Compound `CN(C)CCNC(=O)C(Sc1nc2cc(Cl)ccc2s1)c1ccccc1` (stereo not given) showed a melting point of 108 to 109 °C.

For the compound `Cn1cc(C(=O)NCc2ccc(Cl)cc2)c(=O)c2cc(CN3CCOCC3)cc(C#CCC[C@@H]3COC(=O)N3)c21`, the melting point is 171 to 173 °C.

Regarding `CC(C)c1cc(-c2ccc(F)cc2)c(C=O)c(C(C)C)n1`, the melting point was 72 to 75 °C.

On to `CCOC(=O)c1cn(-c2ccccn2)c2occc2c1=O`, for which the melting point fell in the range of 199 to 200 °C.

For `Cn1c(CC(=O)O)ccc1C(=O)c1ccccc1Cl`, the melting point was in the range of 140 to 141 °C.

In the case of `CCCc1nc2ccccc2n1CC1=C(c2cccc(-c3nnn[nH]3)c2)CCC1`, the melting point lay within 116 to 119 °C.

On to `CC(=O)NCC1CC1c1c(C2CC2)ccc2nn(C)cc12` (stereo not given), for which the melting point fell in the range of 102 to 103 °C.

In the case of `CN(C)C1(c2ccccc2)CCC(CNC(=O)N2CCCC(c3c[nH]c4ccc(F)cc34)C2)CC1` (stereo not given), the melting point fell in the range of 98 to 101 °C.

Compound `Cc1nc2c(OCc3ccccc3)cc(CO)cn2c1C` had a melting point of 213 to 215 °C.

As to `Fc1ccc(Cn2c(NC3CCN(CCNC(=S)N4CCCCC4)CC3)nc3ccccc32)cc1`, the melting point amounted to 176 °C.

As for `O=C(Nc1ccc(Cl)cc1)ONC1=Nc2ccc(Cl)cc2C(c2ccccc2)=NC1`, the melting point lay in the range of 200 to 203 °C.

The compound `CCc1nc(C(=O)NCC(C=C(C)C(CC)[N+](=O)[O-])=NO)c[nH]1` (stereo not given) displayed a melting point of 75 to 79 °C.

In turn, `COCc1noc(-c2ncn3c2[C@@H]2CCCN2C(=O)c2c(Cl)cccc2-3)n1` yielded a melting point of 168 to 170 °C.

`COc1cc2c(cc1OC)CN(CCCc1ccc(N)cc1)CC2`: the melting point stood at 138 °C.

`CC(=O)c1c(O)cccc1OCC(O)COc1c(C)cccc1C` (stereo not given) showed a melting point of 88 to 90 °C.

Turning to `CCCCCCCNC(=O)N(C)c1cccc(-c2ccc(C=C(OCC)C(=O)O)cc2OCCCC)c1`, the melting point amounted to 103 °C.

Take `O=C(CCCCl)CN1C(=O)c2ccccc2C1=O`: the melting point fell in the range of 133 to 134 °C.

For `C=CCc1cc(Cc2cnc(N)nc2N)c2cccnc2c1OC`, the melting point was in the range of 227 to 228 °C.

Take `Cc1[nH]cnc1CC1CCc2c(c3ccccc3n2C)C1=O` (single isomer, unassigned; (+)): the melting point lay in the range of 230 to 232 °C.

Consider `Oc1c(C/C=C/c2ccc(OCc3ccccc3)c(OCc3ccccc3)c2)c(OCc2ccccc2)cc(OCc2ccccc2)c1Cc1ccccc1`, for which the melting point was in the range of 93 to 95 °C.

In turn, `Cc1ccc(OCC=C(Cl)Cl)c(Cl)c1O` gave a melting point of 70 °C.

`CCC1(C(F)(F)F)C(=O)NC(=O)NC1=O` yielded a melting point of 208 to 209 °C.

In turn, `O=C(Cl)c1ncn(Cc2ccc(Cl)c(Cl)c2)c1C(=O)Cl` gave a melting point of 126 to 128 °C.

`CC(=O)c1c[nH]c2nccc(-c3ccccc3)c12` yielded a melting point greater than 210 °C.

`COc1ccc(OCC(O)COc2cccc3oc(C(=O)O)cc(=O)c23)cc1` (stereo not given) showed a melting point of 125 to 126 °C.

Turning to `CCc1cccc2c1nc(-c1c(F)cccc1F)n2Cc1c(F)cccc1F`, the melting point was in the range of 165 to 166 °C.

The compound `CCC1c2cccn2-c2cccc(C)c2N1S(=O)(=O)c1ccc(O)cc1` (stereo not given) showed a melting point of 165 to 167 °C.

`CC(=O)Oc1ccc(-c2c3ccccc3cc3sc(C)c(C)c23)cc1` gave a melting point of 147 to 150 °C.

With `CCC(Cl)C(=O)Nc1c(C(=O)CC(=O)Nc2ccccn2)cccc1C(F)(F)F` (stereo not given), the melting point came out at 137 °C.

For the compound `CCOP(=O)(NN=C(c1ccc(Cl)cc1)c1ccc(OS(C)(=O)=O)cc1)OCC`, the melting point fell in the range of 90 to 91 °C.

Take `Cc1onc(-c2ccccc2)c1-c1ccc(S(=O)(=O)NC(=O)CC(C)(C)S)cc1`: the melting point was 138 to 140 °C.

For the compound `C/C(C=O)=C\COc1cccc(O)c1`, the melting point was 136 to 138 °C.

For `COc1ccc(-c2nc(SCCOCCn3ccnc3C)[nH]c2-c2ccc(OC)cc2)cc1`, the melting point lay within 77 to 79 °C.

Turning to `CSCC(C)(C)NC(=O)c1c(I)cccc1Oc1ncc(C(F)(F)F)cc1Cl`, the melting point is 83 to 85 °C.

`COC(=O)c1c(C(=O)OC)c(C(C)C)n(CCC2CC(O)CC(=O)O2)c1-c1ccc(F)cc1` (stereo not given) showed a melting point of 167 to 170 °C.

In the case of `COc1ccc(NC(=O)c2ccc(Cl)c(Cl)c2)cc1Nc1cccc(C(F)(F)F)c1`, the melting point fell in the range of 151 to 152 °C.

In the case of `CNC(=O)N(CCN)c1nc(-c2ccc(F)cc2C)c2ccc(=O)n(-c3c(F)cccc3F)c2n1`, the melting point lay within 124 to 133 °C.

Turning to `CCOC(=O)c1ccc2c(c1)c(C)c(CBr)n2C(C)=O`, the melting point lay within 125 to 130 °C.

On to `CCOC(=O)c1c(O)c2cc(F)ccc2c(=O)n1CC(C)(C)C`, for which the melting point lay in the range of 115 to 116 °C.

`C=CC1=C(C)c2cc3[nH]c(cc4nc(cc5[nH]c(cc1n2)c(C)c5CCC(=O)OCCN(C)C)C(CCC(=O)OCCN(C)C)=C4C)c(C)c3C=C` returned a melting point of 187 to 191 °C.

On to `CC(O)=C(C#N)C(=O)Nc1ccc(Cl)cc1`, for which the melting point was 209 to 211 °C.

Regarding `Cc1ccc(-n2nc(C(C)(C)C)cc2NC(=O)NCc2ccccc2Oc2cc(N3CCOCC3)ncn2)cc1`, the melting point stood at 128 °C.

With `CCC(Oc1ccc(-n2c(C)nc3cc(C(F)(F)F)ccc32)cc1)C(=O)O` (stereo not given), the melting point came out at 98 °C.

For the compound `CCOC(=O)c1c([N+](=O)[O-])c(-c2ccc(Cl)cc2)n(OC)c1C(F)(F)F`, the melting point lay within 90 to 92 °C.

Compound `CON1C(=O)CC2(CCN(C(=O)c3cccnc3)CC2)C1=O` came in with a melting point of 199 to 201 °C.

`CC(=O)OCC1OC(c2cnc(Cl)nc2Cl)C(OC(C)=O)C1OC(C)=O` (stereo not given) registered a melting point of 75 to 78 °C.

`O=C1C(Cl)=C(CC2CCCC(C(F)(F)F)C2)C(=O)c2ccccc21` (stereo not given) gave a melting point of 104 °C.

`N#Cc1cccc(C2C(=O)N(Cc3ccccc3)Cc3cncn32)c1` (stereo not given) gave a melting point of 163 to 165 °C.

The compound `COC(=O)c1ncoc1-c1cccs1` had a melting point of 64 to 66 °C.

On to `CC(=O)CC(=O)c1ccc(OCCCN2CCCCC2)cc1`, for which the melting point lay within 43 to 45.5 °C.

Regarding `Cc1nc(-n2ccn(Cc3ccc(F)cc3)c2=O)sc1C(=O)NCc1ccccc1`, the melting point lay in the range of 167 to 168 °C.

`C=CCc1cc2cc(CC=C(C)C)c(=O)[nH]c2c(CC=C)c1O` showed a melting point of 241 to 244 °C.

In the case of `COc1ccc(-c2nc(C)c(C(=O)O)s2)cc1`, the melting point is 129 to 131 °C.

In the case of `C[C@H]1CNCC[C@@]12OC(=O)c1ccccc12` (racemic), the melting point was 131 °C.

The compound `O=C(O)CNS(=O)(=O)c1ccc(N2CCC(c3ccccc3)CC2)cc1` registered a melting point of 154 to 156 °C.

In turn, `O=S(=O)(OC(c1cccc(C(OS(=O)(=O)c2ccc(Cl)cc2)(C(F)(F)F)C(F)(F)F)c1)(C(F)(F)F)C(F)(F)F)c1ccc(Cl)cc1` had a melting point of 125 °C.

Regarding `CC(=O)C=Cc1ccc(Cl)cc1Cl`, the melting point is 79 to 80 °C.

`C[C@@H]1C(=O)C[C@H]2C[C@@H]1OO[C@@]2(C)/C=C\c1ccc(Cl)cc1` yielded a melting point of 90 °C.

`O=c1[nH]c2cc(Cl)ccc2c(O)c1-c1cccc(/C=C/c2ccccc2)c1`: the melting point was in the range of 320 to 324 °C.

`Cc1c(Sc2cccnn2)oc2ccc(Cl)cc12` returned a melting point of 131 to 134 °C.

In turn, `CN(C)C(=O)C1N=C(c2ccccc2)c2cc(Cl)ccc2NC1=O` (stereo not given) came in with a melting point of 297 °C.

These data come from a melting point compilation (Tetko et al.; mined from patent text by program, amines drawn as free bases though some values may be those of a salt).
